Laboratory results published in patent US6339096B1, “Urethanes derived from azacycloalkanes, the thio and dithio analogues thereof and their use as cholesterol biosynthesis inhibitors” (Boehringer Ingelheim Pharma KG, priority 1998, dated 2002).
Counter-ions that a name gives are not always drawn.

Columns and labels:
[1] = system: ^14C-acetate incorporation into the steroids which can be precipitated with digitonin; experiment: Inhibition of 14C-acetate incorporation into the steroids which can be precipitated with digitonin; assay type: cell-based; details: for inhibition at 0.01 µM / inhibition at 0.001 µM: read-out: percentage by which the compound inhibits the 14C-acetate incorporation
Experimental: I. Measuring the Inhibition of ^14C-acetate Incorporation into the Steroids which can be Precipitated with Digitonin
The inhibitory effect was investigated using the method described in J. Lipid. Res. 37, 148-157 [1996] at test concentrations of 10^−8 and 10^−9 mol/l.
The IC50 values of compounds H, I, K and M were determined.

[2] = molecular target: T1, 2,3-epoxysqualene-lanosterol-cyclase (Rattus norvegicus, UniProt P48450); experiment: In-vivo activity in the rat after oral administration: 2,3-epoxysqualene level in the liver
T1 construct: The quantity of 2,3-epoxysqualene formed therefore serves as a direct measurement of the potency on the animal as a whole; from tissue; host or cells: living rat; 2,3-epoxysqualene measured in the liver
T1 sequence (P48450 1-733): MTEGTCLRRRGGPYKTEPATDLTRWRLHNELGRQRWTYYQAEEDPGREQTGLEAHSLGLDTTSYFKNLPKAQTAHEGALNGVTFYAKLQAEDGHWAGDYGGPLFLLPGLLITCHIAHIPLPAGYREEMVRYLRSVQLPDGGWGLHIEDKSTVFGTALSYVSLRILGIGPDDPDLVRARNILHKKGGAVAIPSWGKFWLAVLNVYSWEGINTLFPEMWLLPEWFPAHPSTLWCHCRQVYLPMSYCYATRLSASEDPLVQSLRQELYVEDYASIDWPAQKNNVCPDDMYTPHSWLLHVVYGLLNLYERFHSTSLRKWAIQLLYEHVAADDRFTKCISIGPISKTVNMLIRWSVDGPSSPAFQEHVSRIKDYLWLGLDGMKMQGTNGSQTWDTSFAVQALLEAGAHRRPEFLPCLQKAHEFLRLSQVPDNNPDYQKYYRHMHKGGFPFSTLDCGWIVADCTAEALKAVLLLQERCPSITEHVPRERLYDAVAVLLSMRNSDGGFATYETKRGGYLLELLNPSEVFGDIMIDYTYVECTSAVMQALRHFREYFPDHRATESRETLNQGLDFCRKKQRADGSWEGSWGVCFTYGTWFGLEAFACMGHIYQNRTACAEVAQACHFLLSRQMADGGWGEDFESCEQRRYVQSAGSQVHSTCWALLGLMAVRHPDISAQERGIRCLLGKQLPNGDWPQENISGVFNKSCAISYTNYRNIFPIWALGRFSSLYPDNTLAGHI
Experimental: II. Measuring the In-vivo Activity in the Rat after Oral Administration
Inhibiting the enzyme 2,3-epoxysqualene-lanosterol-cyclase causes an increase in the 2,3-epoxisqualene levels in the liver and plasma. The quantity of 2,3-epoxysqualene formed therefore serves as a direct measurement of the potency on the animal as a whole. The amounts were determined using the method described in J. Lipid. Res. 38, 564-575, [1997] after t=3 or 8 hours after administration of the substance in concentrations of c=0.01, 0.03, 0.1, 0.3 and 1.0 mg/kg. Table 3 which follows gives the results obtained for the abovementioned substances A, B, C, D, E, G, H, I and K by way of example.
In the control animals there were no measurable 2,3-epoxisqualene levels under these conditions.

[3] = system: normolipaemic golden hamster; experiment: Lipid reduction in the normolipaemic golden hamster; assay type: in vivo; details: compared with control group
Experimental: III. Lipid Reduction in the Normolipaemic Golden Hamster This was determined using the method described in J. Lipid. Res. 38, 564-575, (1997). At the end of the experiment the total cholesterol, β-lipoprotein-cholesterol and HDL-cholesterol were determined and compared with the values of a control group which were fed without any test substance. The lipid-lowering activity of the abovementioned compound H was tested.

Compound | IC50 [1] [nM] | inhibition at 0.01 µM ([1]; test concentration 10^−8 mol/l) [%] | inhibition at 0.001 µM ([1]; test concentration 10^−9 mol/l) [%] | 2,3-epoxysqualene concentration in the liver (rat) ([2]; c=0.1 mg/kg, t=3 h) [µg/g] | 2,3-epoxysqualene concentration in the liver (rat) ([2]; c=0.1 mg/kg, t=8 h) [µg/g] | 2,3-epoxysqualene concentration in the liver (rat) ([2]; c=1.0 mg/kg, t=3 h) [µg/g] | 2,3-epoxysqualene concentration in the liver (rat) ([2]; c=1.0 mg/kg, t=8 h) [µg/g] | other results
CN(C)Cc1ccc([C@H]2CC[C@H](N(C)C(=O)c3ccc(Cl)cc3)CC2)cc1 [(V), reference compound] | 3.8 |  |  |  |  |  |  | percentage by which the compound inhibits the 14C-acetate incorporation ([1]; test concentration 10^−8 mol/l): −59%; percentage by which the compound inhibits the 14C-acetate incorporation ([1]; test concentration 10^−9 mol/l): −23%
CN(C)Cc1ccc(SC2CCN(C(=O)OCc3ccccc3)CC2)cc1.Cl [(C), N-benzyloxycarbonyl-4-[4-(dimethylaminomethyl)phenylthio]piperidine-hydrochloride] |  | 78 | 57 | 0.5 | 1.3 | 3.8 | 2.0 | 2,3-epoxysqualene concentration in the liver (rat) ([2]; c=0.01 mg/kg, t=3 h): 0.6 µg/g; 2,3-epoxysqualene concentration in the liver (rat) ([2]; c=0.01 mg/kg, t=8 h): 3.0 µg/g; 2,3-epoxysqualene concentration in the liver (rat) ([2]; c=0.3 mg/kg, t=3 h): 0.5 µg/g; 2,3-epoxysqualene concentration in the liver (rat) ([2]; c=0.3 mg/kg, t=8 h): 1.8 µg/g
CN(C)Cc1ccc(C=C2CCN(C(=S)SCc3ccccc3)CC2)cc1 [(F), N-(benzylthio)thiocarbonyl-4-[4-(dimethylaminomethyl)benzyliden]piperidine-hydrochloride] |  | 84 | 45 |  |  |  |  | 
CN(C)Cc1ccc(SC2CCN(C(=O)Oc3ccccc3)CC2)cc1.Cl |  |  |  |  |  |  |  | melting point: 161 °C
CN(C)Cc1ccc(SC2CCN(C(=O)Oc3ccc(Cl)cc3)CC2)cc1.Cl [(D), N-(4-chlorophenoxy)carbonyl-4-[4-(dimethylaminomethyl)phenylthio]piperidine-hydrochloride] |  | 86 | 55 | 1.4 | 1.8 |  |  | 2,3-epoxysqualene concentration in the liver (rat) ([2]; c=0.01 mg/kg, t=3 h): 1.3 µg/g; 2,3-epoxysqualene concentration in the liver (rat) ([2]; c=0.01 mg/kg, t=8 h): 1.0 µg/g
CN(C)Cc1ccc(CC2CCN(C(=S)SCc3ccccc3)CC2)cc1.Cl [(E), N-(benzylthio)thiocarbonyl-4-[4-(dimethylaminomethyl)benzyl]piperidine-hydrochloride] |  | 87 | 47 | 5.6 | 4.4 |  |  | 2,3-epoxysqualene concentration in the liver (rat) ([2]; c=0.01 mg/kg, t=3 h): 0.9 µg/g; 2,3-epoxysqualene concentration in the liver (rat) ([2]; c=0.01 mg/kg, t=8 h): 1.0 µg/g
Cc1ccc(OC(=O)N2CCC(Cc3ccc(CN(C)C)cc3)CC2)cc1.Cl [(K), 4-[4-(dimethylaminomethyl)benzyl]-N-(4-methylphenoxy)carbonylpiperidine-hydrochloride] | 1.4 | 82 | 49 | 0.4 | 0.4 | 24.0 | 5.5 | HDL-cholesterol ([3]; dose 54.2 mg/kg/day): 2.3%; Total cholesterol ([3]; dose 54.2 mg/kg/day): −6.8%; β-Lipoprotein-cholesterol ([3]; dose 54.2 mg/kg/day): −21.2%
CN(C)Cc1ccc(CC2CCN(C(=O)OCc3ccccc3)CC2)cc1.Cl [(I), N-benzyloxycarbonyl-4-[4-(dimethylaminomethyl)benzyl]piperidine-hydrochloride] | 1.2 | 85 | 47 | 1.0 |  | 26.1 | 10.0 | 
Cc1ccc(CC(=O)O[C@H]2CC[C@H](c3ccc(CN(C)C)cc3)CC2)cc1 [(W), trans-O-(p-tolylacetyl)-4-(4-dimethylaminomethylphenyl)cyclohexanol, reference compound] | 9.6 | 72 | 21 |  |  |  |  | 
CN(C)Cc1ccc(CC2CCN(C(=S)Oc3ccc(Cl)cc3)CC2)cc1.Cl [(G), N-(4-chlorophenoxy)thiocarbonyl-4-[4-(dimethylaminomethyl)benzyl]piperidine-hydrochloride] |  | 83 | 56 | 10.3 | 11.5 | 87.4 | 134.2 | 
CN(C)Cc1ccc(C(=O)C2CCN(C(=S)SCc3ccccc3)CC2)cc1.Cl [(B), N-(benzylthio)thiocarbonyl-4-[4-(dimethylaminomethyl)benzoyl]piperidine-hydrochloride] |  | 85 | 47 |  |  | 39.2 | 42.0 | 2,3-epoxysqualene concentration in the liver (rat) ([2]; c=0.3 mg/kg, t=3 h): 4.5 µg/g; 2,3-epoxysqualene concentration in the liver (rat) ([2]; c=0.3 mg/kg, t=8 h): 5.8 µg/g
CN(C)Cc1ccc(SC2CCN(C(=S)SCc3ccccc3)CC2)cc1.Cl [(A), N-(benzylthio)thiocarbonyl-4-[4-(dimethylaminomethyl)phenylthio]piperidine-hydrochloride] |  | 85 | 53 |  |  | 9.3 | 9.8 | 2,3-epoxysqualene concentration in the liver (rat) ([2]; c=0.3 mg/kg, t=3 h): 2.0 µg/g; 2,3-epoxysqualene concentration in the liver (rat) ([2]; c=0.3 mg/kg, t=8 h): 1.2 µg/g
CN(C)Cc1ccc(CC2CCN(C(=O)Oc3ccc(Cl)cc3)CC2)cc1.Cl [(H), N-(4-chlorophenoxy)carbonyl-4-[4-(dimethylaminomethyl)benzyl]piperidine-hydrochloride] | 0.8 | 80 | 45 | 1.0 | 0.8 | 56.3 | 20.7 | HDL-cholesterol ([3]; dose 6.5 mg/kg/day): −3.4%; Total cholesterol ([3]; dose 6.5 mg/kg/day): −8.3%; β-Lipoprotein-cholesterol ([3]; dose 6.5 mg/kg/day): −13.0%; HDL-cholesterol ([3]; dose 19.9 mg/kg/day): −8.2%; Total cholesterol ([3]; dose 19.9 mg/kg/day): −11.0%; β-Lipoprotein-cholesterol ([3]; dose 19.9 mg/kg/day): −13.2%; HDL-cholesterol ([3]; dose 62.3 mg/kg/day): −28.5%; Total cholesterol ([3]; dose 62.3 mg/kg/day): −32.1%; β-Lipoprotein-cholesterol ([3]; dose 62.3 mg/kg/day): −33.7%
CN(C)Cc1ccc(CC2CCN(C(=O)Oc3ccc(F)cc3)CC2)cc1.Cl [(M), 4-[4-(dimethylaminomethyl)benzyl]-N-(4-fluorphenoxy)carbonylpiperidine-hydrochloride] | 1.5 |  |  |  |  |  |  | percentage by which the compound inhibits the 14C-acetate incorporation ([1]; test concentration 10^−8 mol/l): −84%; percentage by which the compound inhibits the 14C-acetate incorporation ([1]; test concentration 10^−9 mol/l): −59%; HDL-cholesterol ([3]; dose 57.5 mg/kg/day): −20.4%; Total cholesterol ([3]; dose 57.5 mg/kg/day): −26.8%; β-Lipoprotein-cholesterol ([3]; dose 57.5 mg/kg/day): −31.6%
Cc1ccc(OC(=S)N2CCC(Cc3ccc(CN(C)C)cc3)CC2)cc1 [(L), 4-[4-(dimethylaminomethyl)benzyl]-N-(4-methylphenoxy)thiocarbonylpiperidine-hydrochloride] |  | 88 | 64 |  |  |  |  | 
